Experimental data from PubChem BioAssay AID248 (DTP/NCI, 2004).
“And” between values parts separate entries of the source, which are not always exact repeats. Equal values may be shown once. Toxic doses and inconclusive results are not listed.

Tested on: L1210 leukemia ip in BDF1 mice, survival T/C
Assay: NCI In Vivo Anticancer Drug Screen. Data for tumor model L1210 Leukemia (intraperitoneal) in B6D2F1 (BDF1) mice
Settings: higher = longer survival
Procedure, shortened: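 Value reflects the ratio of survival in compound-treated mice to survival in vehicle-treated controls, with both groups carrying the same transplanted tumor.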

[1] = endpoint: mean survival time, dose: 200.0 mg/kg/injection, schedule: Q04DX003 (ip), vehicle: saline with Tween-80
[2] = endpoint: mean survival time, dose: 400.0 mg/kg/injection, schedule: Q04DX003 (ip), vehicle: saline with Tween-80
[3] = endpoint: mean survival time, dose: 100.0 mg/kg/injection, schedule: Q01DX001 (ip), vehicle: saline
[4] = endpoint: mean survival time, dose: 200.0 mg/kg/injection, schedule: Q01DX001 (ip), vehicle: saline
[5] = endpoint: mean survival time, dose: 100.0 mg/kg/injection, schedule: Q04DX003 (ip), vehicle: saline
[6] = endpoint: mean survival time, dose: 200.0 mg/kg/injection, schedule: Q04DX003 (ip), vehicle: saline
[7] = endpoint: mean survival time, dose: 100.0 mg/kg/injection, schedule: Q04DX003 (ip), vehicle: Klucel (hydroxypropylcellulose) (HPC)
[8] = endpoint: mean survival time, dose: 200.0 mg/kg/injection, schedule: Q04DX003 (ip), vehicle: Klucel (hydroxypropylcellulose) (HPC)

SMILES: O=C[C@@H](CO)O[C@H](C=O)n1cnc2c(=O)[nH]cnc21
- T/C (endpoint: mean survival time, dose: 35.0 mg/kg/injection, schedule: Q01DX009 (ip), vehicle: saline): 116 % of control
- T/C (endpoint: mean survival time, dose: 35.0 mg/kg/injection, schedule: Q01DX009 (ip), vehicle: water): 122 % of control
- T/C (endpoint: mean survival time, dose: 35.0 mg/kg/injection, schedule: Q01DX Z (ip), vehicle: water): 120 % of control
- T/C (endpoint: mean survival time, dose: 70.0 mg/kg/injection, schedule: Q01DX009 (ip), vehicle: saline): 188 % of control
- T/C (endpoint: mean survival time, dose: 70.0 mg/kg/injection, schedule: Q01DX009 (ip), vehicle: water): 155 % of control
- T/C (endpoint: mean survival time, dose: 79.0 mg/kg/injection, schedule: Q01DX009 (oral), vehicle: saline): 93 % of control
- T/C (endpoint: mean survival time, dose: 80.0 mg/kg/injection, schedule: Q01DX009 (ip), vehicle: saline): 167 % of control
- T/C (endpoint: mean survival time, dose: 98.0 mg/kg/injection, schedule: Q01DX006 (ip), vehicle: saline): 219 % of control
- T/C (endpoint: mean survival time, dose: 98.0 mg/kg/injection, schedule: Q ##X009 (ip), vehicle: saline): 227 % of control
- T/C (endpoint: mean survival time, dose: 98.0 mg/kg/injection, schedule: Q## X Z (ip), vehicle: saline): 227 % of control
- T/C (endpoint: mean survival time, dose: 119.0 mg/kg/injection, schedule: Q01DX009 (oral), vehicle: saline): 110 % of control
- T/C (endpoint: mean survival time, dose: 120.0 mg/kg/injection, schedule: Q01DX009 (ip), vehicle: saline): 167 % of control and 188 % of control
- T/C (endpoint: mean survival time, dose: 125.0 mg/kg/injection, schedule: Q01DX009 (ip), vehicle: saline with Tween-80): 161 % of control
- T/C (endpoint: mean survival time, dose: 140.0 mg/kg/injection, schedule: Q01DX006 (ip), vehicle: saline): 205 % of control
- T/C (endpoint: mean survival time, dose: 140.0 mg/kg/injection, schedule: Q01DX009 (ip), vehicle: saline): 176 % of control and 184 % of control
- T/C (endpoint: mean survival time, dose: 140.0 mg/kg/injection, schedule: Q01DX009 (ip), vehicle: water): 250 % of control
- T/C (endpoint: mean survival time, dose: 140.0 mg/kg/injection, schedule: Q01DX Z (ip), vehicle: water): 253 % of control
- T/C (endpoint: mean survival time, dose: 140.0 mg/kg/injection, schedule: Q ##X009 (ip), vehicle: saline): 246 % of control
- T/C (endpoint: mean survival time, dose: 140.0 mg/kg/injection, schedule: Q## X Z (ip), vehicle: saline): 246 % of control
- T/C (endpoint: mean survival time, dose: 150.0 mg/kg/injection, schedule: Q01DX009 (ip), vehicle: saline with Tween-80): 206 % of control
- T/C (endpoint: mean survival time, dose: 175.0 mg/kg/injection, schedule: Q01DX009 (ip), vehicle: saline with Tween-80): 215 % of control
- T/C (endpoint: mean survival time, dose: 178.0 mg/kg/injection, schedule: Q01DX009 (oral), vehicle: saline): 102 % of control
- T/C (endpoint: mean survival time, dose: 180.0 mg/kg/injection, schedule: Q01DX009 (ip), vehicle: saline): 227 % of control and 251 % of control
- T/C (endpoint: mean survival time, dose: 200.0 mg/kg/injection, schedule: Q01DX009 (ip), vehicle: saline with Tween-80): 439 % of control
- T/C [1]: 165 % of control
- T/C (endpoint: mean survival time, dose: 225.0 mg/kg/injection, schedule: Q01DX009 (ip), vehicle: saline with Tween-80): 427 % of control
- T/C (endpoint: mean survival time, dose: 250.0 mg/kg/injection, schedule: Q04DX003 (ip), vehicle: saline with Tween-80): 172 % of control
- T/C (endpoint: mean survival time, dose: 267.0 mg/kg/injection, schedule: Q01DX009 (oral), vehicle: saline): 110 % of control
- T/C (endpoint: mean survival time, dose: 270.0 mg/kg/injection, schedule: Q01DX009 (ip), vehicle: saline): 182 % of control
- T/C (endpoint: mean survival time, dose: 280.0 mg/kg/injection, schedule: Q01DX009 (ip), vehicle: saline): 89 % of control
- T/C (endpoint: mean survival time, dose: 300.0 mg/kg/injection, schedule: Q04DX003 (ip), vehicle: saline with Tween-80): 245 % of control
- T/C (endpoint: mean survival time, dose: 350.0 mg/kg/injection, schedule: Q04DX003 (ip), vehicle: saline with Tween-80): 318 % of control
- T/C (endpoint: mean survival time, dose: 400.0 mg/kg/injection, schedule: Q01DX009 (oral), vehicle: saline): 102 % of control
- T/C [2]: 401 % of control
- T/C (endpoint: mean survival time, dose: 600.0 mg/kg/injection, schedule: Q01DX009 (oral), vehicle: saline): 104 % of control
- T/C (endpoint: median survival time, dose: 108.0 mg/kg/injection, schedule: Q01DX009 (ip), vehicle: water): 166 % of control
- T/C (endpoint: median survival time, dose: 180.0 mg/kg/injection, schedule: Q01DX009 (ip), vehicle: water): 461 % of control

SMILES: O=c1[nH]c2cc3ccccc3cc2c2ccccc12
- T/C [3]: 109 % of control
- T/C [4]: 95 % of control
- T/C (endpoint: mean survival time, dose: 400.0 mg/kg/injection, schedule: Q01DX001 (ip), vehicle: saline): 100 % of control

SMILES: Nc1ccc(CCc2ccccc2)c(C(=O)O)c1
- T/C (endpoint: mean survival time, dose: 50.0 mg/kg/injection, schedule: Q04DX003 (ip), vehicle: saline): 104 % of control
- T/C [5]: 110 % of control
- T/C [6]: 96 % of control

SMILES: CCC(=O)N(N=O)c1ccccc1
- T/C (endpoint: mean survival time, dose: 18.8 mg/kg/injection, schedule: Q01DX001 (ip), vehicle: saline): 91 % of control

SMILES: COc1nc(=O)n(C2CCCO2)cc1I (centres undefined)
- T/C (endpoint: mean survival time, dose: 50.0 mg/kg/injection, schedule: Q01DX001 (ip), vehicle: saline): 95 % of control
- T/C [3]: 95 % of control
- T/C [4]: 90 % of control

SMILES: O=C(O)c1ccc([N+](=O)[O-])cc1OCc1ccccc1
- T/C (endpoint: mean survival time, dose: 100.0 mg/kg/injection, schedule: Q01DX001 (ip), vehicle: other): 103 % of control
- T/C (endpoint: mean survival time, dose: 200.0 mg/kg/injection, schedule: Q01DX001 (ip), vehicle: other): 95 % of control
- T/C (endpoint: mean survival time, dose: 400.0 mg/kg/injection, schedule: Q01DX001 (ip), vehicle: other): 97 % of control

SMILES: Cc1cccc(C2=NCCN2)c1C
- T/C (endpoint: mean survival time, dose: 5.0 mg/kg/injection, schedule: Q01DX009 (ip), vehicle: saline with Tween-80): 97 % of control
- T/C (endpoint: mean survival time, dose: 10.0 mg/kg/injection, schedule: Q01DX009 (ip), vehicle: saline with Tween-80): 103 % of control
- T/C (endpoint: mean survival time, dose: 20.0 mg/kg/injection, schedule: Q01DX009 (ip), vehicle: saline with Tween-80): 97 % of control

SMILES: CCS(=O)(=O)N1CC(C)OC(C)C1 (centres undefined)
- T/C (endpoint: mean survival time, dose: 100.0 mg/kg/injection, schedule: Q04DX002 (ip), vehicle: Klucel (hydroxypropylcellulose) (HPC)): 96 % of control
- T/C (endpoint: mean survival time, dose: 200.0 mg/kg/injection, schedule: Q04DX002 (ip), vehicle: Klucel (hydroxypropylcellulose) (HPC)): 103 % of control
- T/C (endpoint: mean survival time, dose: 400.0 mg/kg/injection, schedule: Q04DX002 (ip), vehicle: Klucel (hydroxypropylcellulose) (HPC)): 107 % of control

SMILES: Cc1cc(CSC(=N)N)c(CSC(=N)N)cc1C
- T/C (endpoint: mean survival time, dose: 10.0 mg/kg/injection, schedule: Q01DX001 (ip), vehicle: saline): 97 % of control
- T/C (endpoint: mean survival time, dose: 20.0 mg/kg/injection, schedule: Q01DX001 (ip), vehicle: saline): 94 % of control
- T/C (endpoint: mean survival time, dose: 40.0 mg/kg/injection, schedule: Q01DX001 (ip), vehicle: saline): 94 % of control

SMILES: CC(C)(C)c1ccc(SC/C=C/COc2ccccc2)cc1
- T/C (endpoint: mean survival time, dose: 75.0 mg/kg/injection, schedule: Q01DX009 (ip), vehicle: Klucel (hydroxypropylcellulose) (HPC)): 101 % of control
- T/C (endpoint: mean survival time, dose: 150.0 mg/kg/injection, schedule: Q01DX009 (ip), vehicle: Klucel (hydroxypropylcellulose) (HPC)): 90 % of control
- T/C (endpoint: mean survival time, dose: 300.0 mg/kg/injection, schedule: Q01DX009 (ip), vehicle: Klucel (hydroxypropylcellulose) (HPC)): 91 % of control

SMILES: Cc1c(CC[n+]2cccc(C(N)=O)c2)[nH]c(=O)[nH]c1=O
- T/C [5]: 97 % of control
- T/C [6]: 101 % of control
- T/C (endpoint: mean survival time, dose: 400.0 mg/kg/injection, schedule: Q04DX003 (ip), vehicle: saline): 97 % of control

SMILES: CCOP(=O)(OCC)c1ccc([N+](=O)[O-])cc1
- T/C [3]: 87 % of control
- T/C [4]: 89 % of control

SMILES: FC(F)(F)C(F)(F)C1=NS1(F)C(F)(C(F)(F)F)C(F)(F)F (centres undefined)
- T/C (endpoint: mean survival time, dose: 100.0 mg/kg/injection, schedule: Q01DX001 (ip), vehicle: acetone): 100 % of control
- T/C (endpoint: mean survival time, dose: 200.0 mg/kg/injection, schedule: Q01DX001 (ip), vehicle: acetone): 97 % of control
- T/C (endpoint: mean survival time, dose: 400.0 mg/kg/injection, schedule: Q01DX001 (ip), vehicle: acetone): 97 % of control

SMILES: CCCCCCCCCCCCCCCSc1ccc(Br)cc1
- T/C (endpoint: mean survival time, dose: 100.0 mg/kg/injection, schedule: Q04DX003 (ip), vehicle: saline with Tween-80): 97 % of control
- T/C [1]: 102 % of control
- T/C [2]: 94 % of control

SMILES: Cn1cnc(/C(N)=N\O)c1N
- T/C (endpoint: mean survival time, dose: 25.0 mg/kg/injection, schedule: Q01DX005 (ip), vehicle: saline): 102 % of control
- T/C (endpoint: mean survival time, dose: 50.0 mg/kg/injection, schedule: Q01DX005 (ip), vehicle: saline): 113 % of control
- T/C (endpoint: mean survival time, dose: 100.0 mg/kg/injection, schedule: Q01DX005 (ip), vehicle: saline): 107 % of control

SMILES: CN(C(=O)C(=O)N(C)S(=O)(=O)c1ccccc1)S(=O)(=O)c1ccccc1
- T/C (endpoint: mean survival time, dose: 100.0 mg/kg/injection, schedule: Q01DX001 (ip), vehicle: Klucel (hydroxypropylcellulose) (HPC)): 101 % of control
- T/C (endpoint: mean survival time, dose: 200.0 mg/kg/injection, schedule: Q01DX001 (ip), vehicle: Klucel (hydroxypropylcellulose) (HPC)): 97 % of control
- T/C (endpoint: mean survival time, dose: 400.0 mg/kg/injection, schedule: Q01DX001 (ip), vehicle: Klucel (hydroxypropylcellulose) (HPC)): 90 % of control

SMILES: Cc1ccc(S(=O)(=O)N(C)c2cc(Cl)c(C(=O)O)c(Cl)c2)cc1
- T/C [7]: 96 % of control
- T/C [8]: 105 % of control
- T/C (endpoint: mean survival time, dose: 400.0 mg/kg/injection, schedule: Q04DX003 (ip), vehicle: Klucel (hydroxypropylcellulose) (HPC)): 97 % of control

SMILES: CC(C)(C)N1CC(C(O)c2ccccc2)C1c1ccccc1 (centres undefined)
- T/C [7]: 98 % of control
- T/C [8]: 95 % of control
